Data on two compounds can be found in patent publication US20230048888A1, “USE OF TRIAZOLOTRIAZINE DERIVATIVE IN TREATMENT OF DISEASES” (ZHEJIANG VIMGREEN PHARMACEUTICALS, LTD., priority 2019, published 2023).

One data set addresses T1, adenosine receptors A2A (Homo sapiens, UniProt P29274).
T1 construct: expressed in transfected cells; host or cells: HEK293 (hADORA2A-HEK293)
In words: TR-FRET-based cAMP accumulation assay in hADORA2A-HEK293 cells. The format is cell-based. The following applies: NECA at EC80, hADORA2A-HEK293, read-out: A2AR activity (IC50). How it is done:
The inhibitory effects of the test compounds on the adenosine receptors A2A were evaluated by TR-FRET-based cAMP accumulation assay. The method included, in HEK293 cells (hADORA2A-HEK293) expressing A2AR, the production of cAMP stimulated by NECA and the inhibitory effect of A2A receptor antagonists on cAMP. All cells were cultured in a complete medium at 37° C. in the presence of 5% CO2. After being digested with trypsin, the cells were collected by centrifugation at 200 g for 5 minutes. The cells were resuspended in a fresh complete medium, and then the cell viability was counted by a trypan blue exclusion method. […] The cells were diluted with Hank's buffer solution containing HEPES (5 mM), BSA stabilizer (0.1%) and Rolipram (10 μM), then added to a 384-well white non-transparent plate (cells/well, 10 μl/well), and incubated with the test compound at an appropriate concentration (11 concentrations) for 20 minutes at room temperature. Then, the A2A receptor agonist NECA (final concentration=EC80, which was determined in the same experiment performed earlier) was added to the sample, and the sample was incubated again at 37° C. for 30 minutes.
An inhibition rate (%) was calculated according to the following formula, and an IC50 value was calculated from a concentration-inhibition (%) curve after log conversion.
A curve corresponding to the dose was fitted by using XLfit software and the IC50 was determined.

The nature of data set [1]: Pharmacokinetics of test compounds in SD rats (15.2; IV and PO, mixed administration). The data set is classed as in vivo. As to conditions: PO, 3 mg/kg.
Test in data set [2]: as above
The following applies: male, Sprague-Dawley, rat, plasma, SD rats, PO; for AUC(0-t): 2 mg/kg, mixed administration (6 compounds per group). The format is in vivo. The procedure: Administration dose: the compounds in this group were all administered in a mixed way, with 6 compounds in each group for mixed PO administration.
Blood was collected based on the blood collection points in the test protocol. 50 μL of plasma sample was added with acetonitrile (containing 5 ng/mL Verapamil) being 3 folds of the volume thereof; the resulting mixture was vortexed for 30 s, and then centrifuged for 15 min at 15,000 rpm at 4° C.; and 10μ L of supernatant was taken for LC-MS/MS analysis.
For each compound, 3 male SD rats weighing 200-220 g were fasted for one night before dosage, but had access to water.
Orally intragastric administration: before intragastric administration and at 0.083 h, 0.25 h, 0.5 h, 1 h, 2 h, 4 h, 8 h and 24 h after administration (for Compounds 40, 27, 40 and 47), or at 0.25 h, 0.5 h, 1 h, 4 h, 6 h and 8 h after administration (for Compounds 44 and 48), orbital blood was collected and put in a test tube that was treated with heparin sodium, and after centrifugation, the supernatant plasma was collected for LC-MS/MS analysis.
The plasma samples were processed according to the method for “sample treatment” and then analyzed by LC-MS/MS, accompanied with the standard curve and quality control samples. At a time point when the upper limit of quantification was exceeded, the samples were diluted 10 or 100 folds for analysis. All measured data were collected and processed by Analyst 1.6.3 software, and the data were calculated and processed with Microsoft Excel. With DAS 3.2.8 software, the pharmacokinetic parameters were calculated by the statistical moment method. The pharmacokinetic parameters mainly include Tmax, t1/2, Cmax, AUC(0-t), etc.

A short description of data set [3]: Pharmacokinetics of Compounds 27, 40, 22 and 41 in ICR mice in different modes of administration. The format is in vivo. The following applies: for AUC(0-t) / Cmax / half-life: ICR. From the text: WinNonlin® 6.4 was used as the calculation software for PK parameters.
Where [4] appears, read: male, Sprague-Dawley, rat, plasma.

T1 sequence (P29274 whole entry): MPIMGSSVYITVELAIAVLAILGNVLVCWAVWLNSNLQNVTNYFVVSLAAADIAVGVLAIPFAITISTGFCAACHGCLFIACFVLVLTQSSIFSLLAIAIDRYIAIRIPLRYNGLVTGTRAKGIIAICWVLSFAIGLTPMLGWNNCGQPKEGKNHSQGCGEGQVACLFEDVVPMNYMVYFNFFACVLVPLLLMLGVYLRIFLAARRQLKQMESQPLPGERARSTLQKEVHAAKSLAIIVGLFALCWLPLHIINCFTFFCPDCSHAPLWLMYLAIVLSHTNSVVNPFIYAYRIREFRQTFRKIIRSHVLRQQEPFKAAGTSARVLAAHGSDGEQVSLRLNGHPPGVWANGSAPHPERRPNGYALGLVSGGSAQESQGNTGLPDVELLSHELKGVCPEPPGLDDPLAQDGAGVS

For `COCCn1nnc(-c2ccc(CCNc3nc(N)n4nc(-c5ccco5)nc4n3)cc2)n1` [Compound 47, N5-(4-(2-(2-methoxyethyl)-2H-tetrazol-5-yl)phenethyl)-2-(furan-2-yl)-[1,2,4]triazolo[1,5-a][1,3,5]triazine-5,7-diamine], the half-inhibitory concentration (IC50) (usually the point on the concentration scale where inhibition reaches its midpoint) on adenosine receptors A2A stood at 13.9 nM. This compound registered a Cl_F_pred in data set [1] of 23.1623 mL/min/kg. Also, in data set [1] (setting [4]), the exposure AUC(0-t) (as a rule, the area under the concentration-time curve up to a stated or last time point) is 1500 ng·h/mL and the Cmax (in general, the maximum level reached in the sampled fluid or tissue) amounted to 538 ng/mL. Moreover, the AUC(0-t) in data set [2] worked out at 779 ng·h/mL. Besides, the half-life in data set [2] (3 mg/kg, read-out: T½ (converted)) was 2.25 h.

In data set [3] (mouse, in vivo, iv, 1 mg/kg), `CCn1nnc(-c2ccc(CCNc3nc(N)n4nc(-c5ccco5)nc4n3)cc2)n1` [Compound 41, N5-(4-(2-ethyl-2H-tetrazol-5-yl)phenethyl)-2-(furan-2-yl)-[1,2,4]triazolo[1,5-a][1,3,5]triazine-5,7-diamine] gave an AUC(0-t) of 1110 ng·h/mL, a Cmax of 2230 ng/mL and a half-life of 0.28 h. In addition, in data set [3] (mouse, in vivo, po, 5 mg/kg), the AUC(0-t) was 1800 ng·h/mL, the peak concentration (Cmax) came to 1300 ng/mL and the half-life is 1.85 h. In data set [3] (PO, 5 mg/kg), the “Cl—F—pred” value is 48.7 mL/min/kg and the F turned out to be 32.51%. For the same compound, the clearance in data set [3] (mouse, in vivo, IV, 1 mg/kg, read-out: Cl—pred (converted)) was 15.2 mL/min/kg. Moreover, the IC50 on adenosine receptors A2A stood at 7.87 nM. The same compound came in with an AUC(0-t) in data set [2] of 1890 ng·h/mL.
